The values below come from ChEMBL document CHEMBL6182902, “Design, synthesis, and discovery of cinnamoyl amide derivatives as potent NagZ inhibitors with antibacterial activity” (Eur J Med Chem, 2025).

A short description of assay [1]: Binding affinity to CM5 chip-immobilized recombinant N-terminal His-tagged Escherichia coli BL21 NagZ extracted from Escherichia coli BL21 assessed as equilibrium dissociation constant by SPR analysis. A general note: SPR reads the build-up and loss of mass on a sensor chip optically.
Assay [2] can be described thus: Inhibition of recombinant N-terminal His-tagged Escherichia coli BL21 NagZ extracted from Escherichia coli BL21 using different concentrations of substrate pNP-GlcNAc by 4-nitrophenolate ion release based spectrophotometric analysis.
Assay [3] relates to Pseudomonas aeruginosa. Description: Synergistic antibacterial activity against Pseudomonas aeruginosa ATCC 27853 infected in female KM mouse assessed as wound healing rate in skin at 200 ug/ml applied topically measured after 10 days in presence of imipenem relative to control. The class given is functional. The conditions noted are these: dose 200 µg/ml; route top; time 10 day.

Assay [4] relates to Pseudomonas aeruginosa. Description: Synergistic antibacterial activity against Pseudomonas aeruginosa ATCC 27853 assessed as fold reduction in ceftazidime MIC incubated for 18 hrs by two-dimensional microdilution checkerboard assay. The format is functional.
In assay [5] the test system is Pseudomonas aeruginosa. Description: Synergistic antibacterial activity against Pseudomonas aeruginosa ATCC 27853 infected in female KM mouse assessed as increase in wound contraction in skin at 200 ug/ml applied topically measured after 3 days in presence of ceftazidime. The format is functional, organism-based. The conditions noted are these: dose 200.0 µg/ml, route top, time 3.0 day.

The test system of assay [6] is Pseudomonas aeruginosa. Description: Synergistic antibacterial activity against Pseudomonas aeruginosa ATCC 27853 infected in female KM mouse assessed as wound healing rate in skin at 200 ug/ml applied topically measured after 3 days in presence of imipenem (reference value: 36.2 %). The class given is functional. Conditions: dose 200 µg/ml; route top; time 3 day.

The subject of assay [7] is Pseudomonas aeruginosa. Description: Synergistic antibacterial activity against Pseudomonas aeruginosa ATCC 27853 infected in female KM mouse assessed as exudate formation on wound surface at 200 ug/ml applied topically in presence of imipenem measured after 3 days. The class given is functional, organism-based. The conditions noted are these: dose 200.0 µg/ml, route top, time 3.0 day.

In assay [8] the test system is Pseudomonas aeruginosa. Description: Synergistic antibacterial activity against Pseudomonas aeruginosa ATCC 27853 infected in female KM mouse assessed as wound healing rate in skin at 200 ug/ml applied topically measured after 10 days in presence of ceftazidime relative to control. The conditions noted are these: dose 200 µg/ml; route top; time 10 day. The format is functional.

The subject of assay [9] is Pseudomonas aeruginosa. Description: Synergistic antibacterial activity against Pseudomonas aeruginosa ATCC 27853 assessed as fractional inhibitory concentration index incubated for 18 hrs in presence of ceftazidime by two-dimensional microdilution checkerboard assay. The format is functional. On the technique in general: Dilution methods test growth across graded concentrations, often in twofold steps.

In assay [10] the test system is Pseudomonas aeruginosa. The experiment in a line: Synergistic antibacterial activity against Pseudomonas aeruginosa ATCC 27853 assessed as fold reduction in imipenem MIC incubated for 18 hrs by two-dimensional microdilution checkerboard assay. The format is functional.
In assay [11] the test system is Pseudomonas aeruginosa. The experiment in a line: Synergistic antibacterial activity against Pseudomonas aeruginosa ATCC 27853 infected in female KM mouse assessed as epithelial tissue proliferation in skin at 200 ug/ml applied topically in presence of imipenem measured after 3 days. The format is functional, organism-based. The conditions noted are these: dose 200.0 µg/ml, route top, time 3.0 day.

Assay [12] in a line: Inhibition of recombinant N-terminal His-tagged Escherichia coli BL21 NagZ extracted from Escherichia coli BL21 using pNP-GlcNAc as substrate by absorbance based assay.
The subject of assay [13] is Escherichia coli. The experiment in a line: Binding affinity to CM5 chip-immobilized recombinant N-terminal His-tagged Escherichia coli BL21 NagZ extracted from Escherichia coli BL21 assessed as relative response by SPR analysis.
Assay [14] relates to Escherichia coli. The experiment in a line: Inhibition of recombinant N-terminal His-tagged Escherichia coli BL21 NagZ extracted from Escherichia coli BL21 using pNP-GlcNAc as substrate at 100 uM by absorbance based assay relative to control.
In assay [15] the test system is Pseudomonas aeruginosa. The experiment in a line: Synergistic antibacterial activity against Pseudomonas aeruginosa ATCC 27853 infected in female KM mouse assessed as wound healing rate in skin at 200 ug/ml applied topically measured after 3 days in presence of ceftazidime (reference value: 36.2 %). The format is functional. The conditions noted are these: dose 200 µg/ml; route top; time 3 day.

The subject of assay [16] is Pseudomonas aeruginosa. Description: Synergistic antibacterial activity against Pseudomonas aeruginosa ATCC 27853 assessed as fractional inhibitory concentration index incubated for 18 hrs in presence of imipenem by two-dimensional microdilution checkerboard assay. The format is functional.

SMILES strings stand for the structures. Active and inactive are the calls of the source. No cut-off for these calls is given here. Some results are limits rather than exact numbers.

Regarding `O=C(/C=C/c1ccc(Cl)c(Cl)c1)N[C@@H](Cc1ccc(I)cc1)C(=O)O`, the Kd (as a rule, the equilibrium constant for the complex coming apart) in [1] was 42.8 µM. Also, the Ki (as a rule, a measure of affinity in units of concentration, obtained from inhibition or displacement) in assay [2] is 3.3 µM. In addition, the Activity in the assay with Pseudomonas aeruginosa [3] is listed as 93.9%; in the assay with Pseudomonas aeruginosa [5] it was “Active; Activity Higher Than Imipenem And Compound-Ceftazidime Combination”; in the assay on Pseudomonas aeruginosa [6], 69.4%; in the assay on Pseudomonas aeruginosa [8], 95.7%; in the assay on Pseudomonas aeruginosa [15] it was 73.2%. Moreover, the “fold change (FC)” value in the assay on Pseudomonas aeruginosa [4] and with Pseudomonas aeruginosa [10] was more than 4 each time. Moreover, the outcome in the assay with Pseudomonas aeruginosa [7] and in the assay on Pseudomonas aeruginosa [11] was Active. Also, the “fractional inhibitory concentration index (FICI)” value in the assay with Pseudomonas aeruginosa [9] and in the assay on Pseudomonas aeruginosa [16] was 0.375 throughout. Besides, the IC50 – broadly, the midpoint of a concentration-inhibition curve – in [12] was 6.4 µM. Also, in the assay on Escherichia coli [13], the RU is less than 68. Moreover, in the assay with Escherichia coli [14], the inhibition (usually how much of the control response was suppressed) came to 88%.
